Results published in PMC10873635 (Proceedings of the National Academy of Sciences of the …, 2024).

Legend:
His6-Scap(L1)-FLAG = molecular target: T1, His6-Scap(L1)-FLAG (Cricetulus griseus, UniProt P97260); assay: competition with [3H]cholesterol; assay type: binding; conditions: 150 nM [3H]cholesterol, 0.004% NP-40, 0.002% FC-13, 4 °C, 4 h
T1 sequence (P97260 46-269): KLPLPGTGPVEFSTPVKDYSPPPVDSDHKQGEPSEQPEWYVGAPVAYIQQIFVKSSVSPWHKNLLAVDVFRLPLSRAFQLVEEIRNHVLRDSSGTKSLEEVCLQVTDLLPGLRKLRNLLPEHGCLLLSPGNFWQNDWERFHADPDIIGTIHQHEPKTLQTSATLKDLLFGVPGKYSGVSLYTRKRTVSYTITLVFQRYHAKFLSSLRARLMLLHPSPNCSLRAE

His6-ALO (Anthrolysin O) = His6-ALO (Anthrolysin O) (Bacillus anthracis, UniProt A0A6L7HHW7); assay type: biochemical
His6-ALO (Anthrolysin O), sequence (A0A6L7HHW7 35-512 limits assumed): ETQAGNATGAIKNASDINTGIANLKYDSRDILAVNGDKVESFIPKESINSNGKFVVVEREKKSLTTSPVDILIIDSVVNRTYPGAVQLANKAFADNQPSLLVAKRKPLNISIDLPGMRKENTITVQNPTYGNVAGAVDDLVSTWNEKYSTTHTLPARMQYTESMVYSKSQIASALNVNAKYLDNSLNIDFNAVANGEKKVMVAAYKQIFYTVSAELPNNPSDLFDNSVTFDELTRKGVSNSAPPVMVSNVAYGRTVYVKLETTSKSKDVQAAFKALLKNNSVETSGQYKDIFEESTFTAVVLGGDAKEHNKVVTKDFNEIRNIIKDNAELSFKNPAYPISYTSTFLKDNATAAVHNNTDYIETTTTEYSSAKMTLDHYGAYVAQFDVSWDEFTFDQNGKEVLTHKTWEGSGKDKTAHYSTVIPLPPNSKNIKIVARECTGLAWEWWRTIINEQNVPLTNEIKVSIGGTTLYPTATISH

Structure (SMILES): C[C@H](CCCC(C)(C)F)[C@H]1CC[C@H]2[C@@H]3CC=C4C[C@@H](O)CC[C@]4(C)[C@H]3CC[C@]12C [25-fluorocholesterol]
- competition with [3H]cholesterol (His6-Scap(L1)-FLAG; competitive): both Scap and ALO bind desmosterol, 25-fluorocholesterol, and β-sitosterol
- inhibition of hemolysis of rabbit erythrocytes (His6-ALO (Anthrolysin O)): both Scap and ALO bind desmosterol, 25-fluorocholesterol, and β-sitosterol

Structure (SMILES): CCOC(=O)c1ccc(NC(=O)Nc2ccc(-c3noc(C4CCC4)n3)cc2)cc1 [UT-59, ethyl 4-({[4-(5-cyclobutyl-1,2,4-oxadiazol-3-yl)anilino]carbonyl}amino) benzoate]
- competition with [3H]cholesterol (His6-Scap(L1)-FLAG; competitive, cholesterol site): UT-59 competed with [^3H]cholesterol for binding to His6-Scap(L1)-FLAG to a similar degree as unlabeled cholesterol

Structure (SMILES): CC(C)CCC[C@@H](C)[C@H]1CC[C@H]2[C@@H]3CC=C4C[C@@H](O)CC[C@]4(C)[C@H]3CC[C@]12C [cholesterol]
- competition with [3H]cholesterol (His6-Scap(L1)-FLAG; also labelled compound): As expected, both Scap and ALO bind cholesterol.
- inhibition of hemolysis of rabbit erythrocytes (His6-ALO (Anthrolysin O)): the sterol occupied the binding pocket, preventing ALO from binding to the membrane and inhibiting hemolysis

Structure (SMILES): CC(C)=CCC[C@@H](C)[C@H]1CC[C@H]2[C@@H]3CC=C4C[C@@H](O)CC[C@]4(C)[C@H]3CC[C@]12C [desmosterol]
- competition with [3H]cholesterol (His6-Scap(L1)-FLAG; competitive): both Scap and ALO bind desmosterol, 25-fluorocholesterol, and β-sitosterol
- inhibition of hemolysis of rabbit erythrocytes (His6-ALO (Anthrolysin O)): both Scap and ALO bind desmosterol, 25-fluorocholesterol, and β-sitosterol

Structure (SMILES): CC(C)CCC[C@@H](C)[C@H]1CC[C@H]2[C@@H]3CC[C@H]4C[C@@H](O)CC[C@]4(C)[C@H]3CC[C@]12C [dihydrocholesterol]
- competition with [3H]cholesterol (His6-Scap(L1)-FLAG; competitive): as well as dihydrocholesterol, where the double bond in the steroid nucleus is reduced

Structure (SMILES): CC[C@H](CC[C@@H](C)[C@H]1CC[C@H]2[C@@H]3CC=C4C[C@@H](O)CC[C@]4(C)[C@H]3CC[C@]12C)C(C)C [β-sitosterol]
- competition with [3H]cholesterol (His6-Scap(L1)-FLAG; competitive): both Scap and ALO bind desmosterol, 25-fluorocholesterol, and β-sitosterol
- inhibition of hemolysis of rabbit erythrocytes (His6-ALO (Anthrolysin O)): both Scap and ALO bind desmosterol, 25-fluorocholesterol, and β-sitosterol
